Laboratory results from ChEMBL document CHEMBL2311441.

Target: T1, NAD-dependent protein deacetylase sirtuin-1 (Homo sapiens) (UniProt Q96EB6)
T1 sequence (whole entry): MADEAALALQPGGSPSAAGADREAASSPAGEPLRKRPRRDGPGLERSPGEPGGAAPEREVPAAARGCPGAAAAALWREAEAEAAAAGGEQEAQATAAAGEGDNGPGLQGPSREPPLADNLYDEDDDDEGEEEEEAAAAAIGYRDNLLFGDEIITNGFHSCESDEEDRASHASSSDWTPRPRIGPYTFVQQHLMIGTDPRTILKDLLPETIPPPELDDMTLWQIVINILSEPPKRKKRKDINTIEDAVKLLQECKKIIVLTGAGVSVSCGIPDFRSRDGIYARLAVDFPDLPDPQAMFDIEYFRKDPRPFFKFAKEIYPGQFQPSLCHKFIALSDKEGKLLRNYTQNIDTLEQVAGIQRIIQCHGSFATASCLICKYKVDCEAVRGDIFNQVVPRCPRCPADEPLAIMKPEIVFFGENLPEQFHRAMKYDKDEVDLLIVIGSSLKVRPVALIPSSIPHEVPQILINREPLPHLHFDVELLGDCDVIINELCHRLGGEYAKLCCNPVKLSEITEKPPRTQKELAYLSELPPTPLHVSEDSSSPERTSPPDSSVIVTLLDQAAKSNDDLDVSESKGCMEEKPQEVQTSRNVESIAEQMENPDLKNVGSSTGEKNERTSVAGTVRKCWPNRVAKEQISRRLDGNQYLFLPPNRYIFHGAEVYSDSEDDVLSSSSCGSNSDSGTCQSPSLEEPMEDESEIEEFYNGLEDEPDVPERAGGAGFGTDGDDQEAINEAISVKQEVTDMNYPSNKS
Settings: Sf9

| Compound | ΔTm [°C] |
| --- | --- |
| NC(=O)[C@@H]1CCCCc2c1[nH]c1ccc(Cl)cc21 | 10 |
| NC(=O)[C@@H]1CCCc2c1[nH]c1ccc(Cl)cc21 | 10 |
